How the values were obtained:
human GCGR = human GCGR (Homo sapiens (Human), UniProt P47871); assay: Cellular functional assay, cAMP readout (glucagon-stimulated cAMP in HEK293 cells expressing human GCGR); format: cell-based; details: hGluc-1 HEK cells, LANCE TR-FRET, IC50 converted to Ki, average if tested more than once
Procedure, shortened: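 HEK293 cells stably transfected with full-length human GCGR were exposed to compound for 30 min before a 5-min challenge with […] (final) glucagon. Readout was TR-FRET (LANCE) cAMP versus standard curve; IC50s fitted by non-linear regression and converted to Ki values.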

[1] = molecular target: human glucagon receptor (GCGR) (Homo sapiens (Human), UniProt P47871); assay: Inhibition of 125I-glucagon binding to membranes from HEK293 cells expressing the human glucagon receptor; details: membranes of hGluc-1 HEK cells, 125I-glucagon 0.3 nM, 2 hours room temperature; IC50 converted to Ki; average if tested more than once
Chain of human glucagon receptor (GCGR) (P47871 26-477): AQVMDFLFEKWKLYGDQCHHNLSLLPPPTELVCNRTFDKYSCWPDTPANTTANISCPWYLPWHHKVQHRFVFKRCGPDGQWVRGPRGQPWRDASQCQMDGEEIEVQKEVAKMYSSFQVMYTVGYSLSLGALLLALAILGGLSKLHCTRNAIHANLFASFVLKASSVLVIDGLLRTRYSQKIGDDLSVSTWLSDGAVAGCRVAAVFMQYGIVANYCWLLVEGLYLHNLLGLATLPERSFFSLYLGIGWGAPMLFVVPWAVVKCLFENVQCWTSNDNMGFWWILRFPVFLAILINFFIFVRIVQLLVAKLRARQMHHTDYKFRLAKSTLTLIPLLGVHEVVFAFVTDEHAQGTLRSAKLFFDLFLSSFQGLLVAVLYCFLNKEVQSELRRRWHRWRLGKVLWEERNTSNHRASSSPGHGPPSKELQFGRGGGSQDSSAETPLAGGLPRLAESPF
Experimental: Inhibition ^125I-Glucagon Binding to Membranes from HEK293 Cells Expressing the Human Glucagon Receptor (GCGR)
Full-length human GCGR (Accession Number: NM000160) subcloned into pcDNA3.1 was stably transfected into HEK293 cells (hGluc-1 HEK) and maintained under G418 selection (500 μg/mL). Cell cultures were maintained in DMEM/F12 media supplemented with 10% FBS and 1% GlutaMax. Membranes were prepared from these cells as follows: cells were harvested from T225 flasks and re-suspended in hypotonic lysis buffer, 50 mM HEPES pH 7.4 supplemented with Complete Protease inhibitors (Boehringer Mannheim, Indianapolis, Ind.). Cells were dounced 20 times on ice and spun at 700×g to remove nuclei and unlysed cells. The resulting pellet was re-suspended in hypotonic lysis buffer and the above step was repeated. Supernatants from the low speed centrifugation were combined and subsequently spun at 100K×g for 1 hr at 4° C. and the resulting pellet was re-suspended in buffer containing 50 mM HEPES pH 7.4 and 10% sucrose and the protein concentration was adjusted at 1 mg/mL as determined in the BCA assay. Membranes were aliquoted and stored at −80° C. The binding assay was performed by a filtration method in a 384 well format. Membranes at a final protein concentration of 6 μg/well were incubated with ^125I-glucagon at 0.3 nM and in the presence of compound for 2 hours at room temperature in a total reaction volume of 40 μL per well. Assay buffer consisted of 50 mM HEPES, pH 7.4, 5 mM MgCl2, 1 mM CaCl2 and 0.2% BSA. 30 μL of the reaction was then transferred to PEI treated filter plates and followed by filter aspiration. Plates were then washed 5× and allowed to dry at room temperature overnight. The next day the bottom of the plate was covered with seal tape and scintillant was added. Total counts retained by the filters were quantified with a Top Count instrument. IC50's were generated by using a non-linear regression macro driven in Excel and converted to K's.

Chain of human GCGR (P47871 26-477): as above

Row | Compound | Ki (human GCGR) | Ki [1]
1 | O=C(O)CCNC(=O)c1ccc(-c2cc(C(F)(F)F)ccc2CNc2ccc(-c3ccc(Cl)cc3Cl)c(Cl)c2)cn1 [Compound 27, 3-(5-(2-(((2,2′,4′-trichloro-[1,1′-biphenyl]-4-yl)amino)methyl)-5-(trifluoromethyl)phenyl)picolinamido)propanoic acid] | 17.3 nM | 21.5 nM
2 | O=C(O)CCNC(=O)c1ccc(-c2cc(C(F)(F)F)ccc2CNc2ccc(-c3ccc(Cl)cc3)c(Cl)c2)cn1 [Compound 28, 3-(5-(2-(((2,4′-dichloro-[1,1′-biphenyl]-4-yl)amino)methyl)-5-(trifluoromethyl)phenyl)picolinamido)propanoic acid] | 31.6 nM | 28 nM
3 | O=C(O)CCNC(=O)c1ccc(-c2cc(C(F)(F)F)ccc2CNc2ccc(-c3ccc(C(F)(F)F)cc3)cc2)cn1 [Compound 29, 3-(5-(5-(trifluoromethyl)-2-(((4′-(trifluoromethyl)-[1,1′-biphenyl]-4-yl)amino)methyl)phenyl)picolinamido)propanoic acid] | 62 nM | 30.4 nM
4 | Cc1cc(C(F)(F)F)ccc1-c1ccc(NCc2ccc(C(F)(F)F)cc2-c2ccc(C(=O)NCCC(=O)O)nc2)cc1 [Compound 30, 3-(5-(2-(((2′-methyl-4′-(trifluoromethyl)-[1,1′-biphenyl]-4-yl)amino)methyl)-5-(trifluoromethyl)phenyl)picolinamido)propanoic acid] | 19.4 nM | 19.3 nM
5 | O=C(O)CCNC(=O)c1ccc(-c2cc(C(F)(F)F)ccc2CNc2ccc(-c3ccc(F)c(C(F)(F)F)c3)c(Cl)c2)cn1 [Compound 31, 3-(5-(2-(((2-chloro-4′-fluoro-3′-(trifluoromethyl)-[1,1′-biphenyl]-4-yl)amino)methyl)-5-(trifluoromethyl)phenyl)picolinamido)propanoic acid] | 19.4 nM | 22.1 nM
6 | O=C(O)CCNC(=O)c1ccc(-c2cc(C(F)(F)F)ccc2CNc2ccc(-c3ccc(Cl)c(C(F)(F)F)c3)c(Cl)c2)cn1 [Compound 32, 3-(5-(2-(((2,4′-dichloro-3′-(trifluoromethyl)-[1,1′-biphenyl]-4-yl)amino)methyl)-5-(trifluoromethyl)phenyl)picolinamido)propanoic acid] | 72.5 nM | 25.1 nM
7 | O=C(O)CCNC(=O)c1ccc(-c2cc(C(F)(F)F)ccc2CNc2ccc(-c3ccc(F)cc3Cl)c(Cl)c2)cn1 [Compound 33, 3-(5-(2-(((2,2′-dichloro-4′-fluoro-[1,1′-biphenyl]-4-yl)amino)methyl)-5-(trifluoromethyl)phenyl)picolinamido)propanoic acid] | 59.8 nM | 21.3 nM
8 | Cc1cc(Cl)ccc1-c1ccc(NCc2ccc(C(F)(F)F)cc2-c2ccc(C(=O)NCCC(=O)O)nc2)cc1Cl [Compound 34, 3-(5-(2-(((2,4′-dichloro-2′-methyl-[1,1′-biphenyl]-4-yl)amino)methyl)-5-(trifluoromethyl)phenyl)picolinamido)propanoic acid] | 17.1 nM | 23.8 nM
9 | O=C(O)CCNC(=O)c1ccc(-c2cc(C(F)(F)F)ccc2CNc2ccc(-c3ccc(F)c(Cl)c3)c(Cl)c2)cn1 [Compound 35, 3-(5-(2-(((2,3′-dichloro-4′-fluoro-[1,1′-biphenyl]-4-yl)amino)methyl)-5-(trifluoromethyl)phenyl)picolinamido)propanoic acid] | 35 nM | 14.4 nM
10 | O=C(O)CCNC(=O)c1ccc(-c2cc(Cl)ccc2C(=O)Nc2ccc(-c3ccc(F)cc3F)cc2)cn1 [Compound 36, 3-(5-(5-chloro-2-((2′,4′-difluoro-[1,1′-biphenyl]-4-yl)carbamoyl)phenyl)picolinamido)propanoic acid] | 95.1 nM | 67.3 nM
11 | O=C(O)CCNC(=O)c1ccc(-c2cc(C(F)(F)F)ccc2CNc2ccc(-c3ccc(Cl)cc3F)c(Cl)c2)cn1 [Compound 37, 3-(5-(2-(((2,4′-dichloro-2′-fluoro-[1,1′-biphenyl]-4-yl)amino)methyl)-5-(trifluoromethyl)phenyl)picolinamido)propanoic acid] | 30 nM | 23.2 nM
12 | O=C(O)CCNC(=O)c1ccc(-c2cc(C(F)(F)F)ccc2CNc2ccc(-c3cccc(C(F)(F)F)c3Cl)c(Cl)c2)cn1 [Compound 38, 3-(5-(2-(((2,2′-dichloro-3′-(trifluoromethyl)-[1,1′-biphenyl]-4-yl)amino)methyl)-5-(trifluoromethyl)phenyl)picolinamido)propanoic acid] | 22.4 nM | 22.5 nM
13 | O=C(O)CCNC(=O)c1ccc(-c2cc(C(F)(F)F)ccc2CNc2ccc(-c3ccc(C(F)(F)F)c(F)c3)c(Cl)c2)cn1 [Compound 39, 3-(5-(2-(((2-chloro-3′-fluoro-4′-(trifluoromethyl)-[1,1′-biphenyl]-4-yl)amino)methyl)-5-(trifluoromethyl)phenyl)picolinamido)propanoic acid] | 47.4 nM | 26.6 nM
14 | O=C(O)CCNC(=O)c1ccc(-c2cc(C(F)(F)F)ccc2CNc2ccc(-c3ccc(Cl)cc3F)cc2)cn1 [Compound 40, 3-(5-(2-(((4′-chloro-2′-fluoro-[1,1′-biphenyl]-4-yl)amino)methyl)-5-(trifluoromethyl)phenyl)picolinamido)propanoic acid] | 64.2 nM | 26.3 nM
15 | O=C(O)CCNC(=O)c1ccc(-c2cc(C(F)(F)F)ccc2CNc2ccc(-c3cccc(C(F)(F)F)c3Cl)cc2)cn1 [Compound 41, 3-(5-(2-(((2′-chloro-3′-(trifluoromethyl)-[1,1′-biphenyl]-4-yl)amino)methyl)-5-(trifluoromethyl)phenyl)picolinamido)propanoic acid] | 28.3 nM | 20.4 nM
16 | O=C(O)CCNC(=O)c1ccc(-c2cc(C(F)(F)F)ccc2CNc2ccc(-c3ccc(C(F)(F)F)cc3Cl)c(Cl)c2)cn1 [Compound 42, 3-(5-(2-(((2,2′-dichloro-4′-(trifluoromethyl)-[1,1′-biphenyl]-4-yl)amino)methyl)-5-(trifluoromethyl)phenyl)picolinamido)propanoic acid] | 20 nM | 16.5 nM
17 | Cc1cc(C(F)(F)F)ccc1-c1ccc(NCc2ccc(C(F)(F)F)cc2-c2ccc(C(=O)NCCC(=O)O)nc2)cc1Cl [Compound 43, 3-(5-(2-(((2-chloro-2′-methyl-4′-(trifluoromethyl)-[1,1′-biphenyl]-4-yl)amino)methyl)-5-(trifluoromethyl)phenyl)picolinamido)propanoic acid] | 21.9 nM | 17.2 nM
18 | O=C(O)CCNC(=O)c1ccc(-c2cc(C(F)(F)F)ccc2CNc2ccc(-c3ccc(Cl)cc3)cc2)cn1 [Compound 44, 3-(5-(2-(((4′-chloro-[1,1′-biphenyl]-4-yl)amino)methyl)-5-(trifluoromethyl)phenyl)picolinamido)propanoic acid] | 60.1 nM | 18.4 nM
19 | O=C(O)CCNC(=O)c1ccc(-c2cc(Cl)ccc2CNc2ccc(-c3ccc(Cl)cc3Cl)c(Cl)c2)cn1 [Compound 51, 3-(5-(5-chloro-2-(((2,2′,4′-trichloro-[1,1′-biphenyl]-4-yl)amino)methyl)phenyl)picolinamido)propanoic acid] | 34.1 nM | 16.8 nM
20 | O=C(O)CCNC(=O)c1ccc(-c2cc(F)ccc2CNc2ccc(-c3ccc(Cl)c(Cl)c3)c(F)c2)cn1 [Compound 53, 3-(5-(2-(((3′,4′-dichloro-2-fluoro-[1,1′-biphenyl]-4-yl)amino)methyl)-5-fluorophenyl)picolinamido)propanoic acid] | 495 nM | 103 nM
